Patent US20250215039A1, “NUCLEOSIDES FOR TREATING CANCER” (PRIMEFOUR THERAPEUTICS, INC., priority 2022, published 2025)
Read-outs that look alike come from different tables or passages of the source.

Test system: cancer cell lines
Assay: Cancer cell proliferation activity (CellTiterGlo, 72 h)
Assay type: cell-based
Details: 72 h, 72 h, read-out: IC50
How it was run: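 Cells seeded overnight at 37 °C, then dosed with compound at 0.1% final DMSO and incubated 72 h at 37 °C (5% or 10% CO2 by medium).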

IC50 (5637 cell line (bladder)): 560 nM
IC50 (AS49 cell line (lung)): 3010 nM
IC50 (CLS439 cell line (bladder)): 3260 nM
IC50 (HS729 cell line (muscle)): 870 nM
IC50 (JAR cell line (placenta)): 320 nM
IC50 (Homo sapiens, 22Rv1, 72 h, 22RV1 cell line (prostate)): 1080 nM
IC50 (Homo sapiens, 786-0, 72 h, 786O cell line (kidney)): 300 nM
IC50 (Homo sapiens, A204, 72 h, A204 cell line (muscle)): 220 nM
IC50 (Homo sapiens, A673, 72 h, A673 cell line (bone)): 1440 nM
IC50 (Homo sapiens, A2780, 72 h, A2780 cell line (ovary)): 740 nM
IC50 (Homo sapiens, A-375, 72 h, A375 cell line (skin)): 200 nM
IC50 (Homo sapiens, A-431, 72 h, A431 cell line (skin)): 330 nM
IC50 (Homo sapiens, ACHN, ACHN cell line (kidney)): 2540 nM
IC50 (Homo sapiens, ASPC1, 72 h, ASPC1 cell line (pancreas)): 220 nM
IC50 (Homo sapiens, BT-20, 72 h, BT20 cell line (breast)): 340 nM
IC50 (Homo sapiens, BXPC-3, 72 h, BXPC3 cell line (pancreas)): 2530 nM
IC50 (Homo sapiens, C-33-A, C33A cell line (cervical)): 630 nM
IC50 (Homo sapiens, CAKI-1, 72 h, CAKI1 cell line (kidney)): 20 nM
IC50 (Homo sapiens, COLO 205, 72 h, COLO205 cell line (colon)): 760 nM
IC50 (Homo sapiens, COLO-678, 72 h, COLO678 cell line (colon)): 1990 nM
IC50 (Homo sapiens, Ca-Ski, CASKI cell line (cervical)): 160 nM
IC50 (Homo sapiens, Caco-2, 72 h, CACO2 cell line (colon)): 610 nM
IC50 (Homo sapiens, Calu-6, 72 h, CALU6 cell line (lung)): 300 nM
IC50 (Homo sapiens, DLD-1, 72 h, DLD1 cell line (colon)): 2030 nM
IC50 (Homo sapiens, DU-145, 72 h, DU145 cell line (prostate)): 120 nM
IC50 (Homo sapiens, EFO-21, 72 h, EFO21 cell line (ovary)): 330 nM
IC50 (Homo sapiens, EJ-28, 72 h, EJ28 cell line (bladder)): 220 nM
IC50 (Homo sapiens, Granta-519, 72 h, GRANTA-519 cell line (hematological)): 2600 nM
IC50 (Homo sapiens, HCT-15, 72 h, HCT15 cell line (colon)): 1460 nM
IC50 (Homo sapiens, HCT-116, 72 h, HCT116 cell line (colon)): 480 nM
IC50 (Homo sapiens, HEK293, 72 h, HEK293 cell line (kidney)): 380 nM
IC50 (Homo sapiens, HL-60, 72 h, HL-60 cell line (hematological)): 330 nM
IC50 (Homo sapiens, HT-29, 72 h, HT29 cell line (colon)): 220 nM
IC50 (Homo sapiens, HT-1080, 72 h, HT1080 cell line (connective tissue)): 3630 nM
IC50 (Homo sapiens, HeLa, HELA cell line (cervical)): 440 nM
IC50 (Homo sapiens, HepG2, 72 h, HEPG2 cell line (liver)): 300 nM
IC50 (Homo sapiens, Hs-578T, HS578T cell line, breast): 550 nM
IC50 (Homo sapiens, IGROV-1, 72 h, IGROV1 cell line (ovary)): 200 nM
IC50 (Homo sapiens, IMR-90, 72 h, IMR90 cell line, lung): 410 nM
IC50 (Homo sapiens, J82, 72 h, J82 cell line (bladder)): 470 nM
IC50 (Homo sapiens, JEG-3, 72 h, JEG3 cell line (placenta)): 290 nM
IC50 (Homo sapiens, JIMT-1, 72 h, JIMT1 cell line (breast)): 80 nM
IC50 (Homo sapiens, K562, 72 h, K-562 cell line (hematological)): 5370 nM
IC50 (Homo sapiens, Kasumi 1, 72 h, KASUMI-1 cell line (hematological)): 60 nM
IC50 (Homo sapiens, L-363, 72 h, L-363 cell line (hematological)): 290 nM
IC50 (Homo sapiens, LoVo, LOVO cell line (colon)): 140 nM
IC50 (Homo sapiens, MCF7, 72 h, MCF7 cell line (breast)): 9700 nM
IC50 (Homo sapiens, MDA-MB-231, 72 h, MDAMB231 cell line (breast)): 2850 nM
IC50 (Homo sapiens, MDA-MB-435, 72 h, MDAMB435 cell line (skin)): 1400 nM
IC50 (Homo sapiens, MDA-MB-436, 72 h, MDAMB436 cell line (breast)): 190 nM
IC50 (Homo sapiens, MDA-MB-468, 72 h, MDAMB468 cell line (breast)): 270 nM
IC50 (Homo sapiens, MG-63, 72 h, MG63 cell line (bone)): > 50000 nM
IC50 (Homo sapiens, MHH-ES-1, 72 h, MHHES1 cell line (bone)): 400 nM
IC50 (Homo sapiens, MIA PaCa-2, 72 h, MIAPACA2 cell line (pancreas)): > 50000 nM
IC50 (Homo sapiens, MINO, MINO cell line (hematological)): 150 nM
IC50 (Homo sapiens, MV4-11, 72 h, MV4-11 cell line (hematological)): 50 nM
IC50 (Homo sapiens, NCI-H23, 72 h, NCI-H23 cell line (lung)): 410 nM
IC50 (Homo sapiens, NCI-H82, 72 h, NCIH82 cell line (lung)): 390 nM
IC50 (Homo sapiens, NCI-H292, 72 h, NCIH292 cell line (lung)): 4170 nM
IC50 (Homo sapiens, NCI-H460, 72 h, NCIH460 cell line (lung)): 500 nM
IC50 (Homo sapiens, OVCAR-3, 72 h, OVCAR3 cell line (ovary)): 170 nM
IC50 (Homo sapiens, OVCAR-4, 72 h, OVCAR4 cell line (ovary)): 560 nM
IC50 (Homo sapiens, PANC-1, 72 h, PANC1 cell line (pancreas)): > 50000 nM
IC50 (Homo sapiens, PC-3, 72 h, PC3 cell line (prostate)): 470 nM
IC50 (Homo sapiens, PLC-PRF-5, 72 h, PLCPRF5 cell line (liver)): 2020 nM
IC50 (Homo sapiens, Panc1005, 72 h, PANC1005 cell line (pancreas)): 230 nM
IC50 (Homo sapiens, RD, RD cell line (muscle)): 640 nM
IC50 (Homo sapiens, Ramos, RAMOS cell line (hematological)): 520 nM
IC50 (Homo sapiens, SAOS-2, 72 h, SAOS2 cell line (bone)): 300 nM
IC50 (Homo sapiens, SF-268, 72 h, SF268 cell line (brain)): 5030 nM
IC50 (Homo sapiens, SF-295, 72 h, SF295 cell line (brain)): 1650 nM
IC50 (Homo sapiens, SK-BR-3, 72 h, SKBR3 cell line (breast)): 50 nM
IC50 (Homo sapiens, SK-HEP1, 72 h, SKHEP1 cell line (liver)): 2410 nM
IC50 (Homo sapiens, SK-LMS-1, 72 h, SKLMS1 cell line (uterus)): 300 nM
IC50 (Homo sapiens, SK-MEL-5, 72 h, SKMEL5 cell line, skin): 3170 nM
IC50 (Homo sapiens, SK-MEL-28, 72 h, SKMEL28 cell line (skin)): 680 nM
IC50 (Homo sapiens, SK-N-AS, SKNAS cell line (brain)): 370 nM
IC50 (Homo sapiens, SK-N-SH, SKNSH cell line (brain)): 260 nM
IC50 (Homo sapiens, SK-OV-3, 72 h, SKOV3 cell line (ovary)): 460 nM
IC50 (Homo sapiens, SNB-75, 72 h, SNB75 cell line (brain)): 1380 nM
IC50 (Homo sapiens, SU-DHL10, 72 h, SU-DHL-10 cell line (hematological)): 460 nM
IC50 (Homo sapiens, SU-DHL-6, 72 h, SU-DHL-6 cell line (hematological)): 240 nM
IC50 (Homo sapiens, SW-620, 72 h, SW620 cell line (colon)): 360 nM
IC50 (Homo sapiens, T-24, 72 h, T24 cell line (bladder)): 600 nM
IC50 (Homo sapiens, TE-671, 72 h, TE671 cell line (muscle)): 2440 nM
IC50 (Homo sapiens, THP-1, 72 h, THP-1 cell line (hematological)): 2270 nM
IC50 (Homo sapiens, U2OS, U2OS cell line (bone)): 510 nM
IC50 (Homo sapiens, U-87 MG, U87MG cell line (brain)): 3130 nM
IC50 (Homo sapiens, UMUC3, 72 h, UMUC3 cell line (bladder)): 3040 nM
IC50 (Homo sapiens, UO-31, 72 h, UO31 cell line (kidney)): 240 nM
IC50 (Homo sapiens, WSU-NHL, WSU-NHL cell line (hematological)): 460 nM
IC50 (MT-3, 72 h, MT3 cell line (breast)): 280 nM
IC50 (NCI-H358M, NCIH358M cell line (lung)): 270 nM
IC50 (PBMC, PBMC (hematological)): > 50000 nM
IC50 (RD-ES, RDES cell line (bone)): 250 nM
Structure (SMILES): CCC[C@]1(CO)O[C@@H](n2cnc3c(N)nc(F)nc32)C[C@@H]1O [Cpd. No. 129, (2R,3S,5R)-5-(6-amino-2-fluoro-9H-purin-9-yl)-2-(hydroxymethyl)-2-propyltetrahydrofuran-3-ol]
